Legend:
[1] = test system: C57BL/6J male mice; experiment: Experimental Example 1: mice fed high-fat feed with added amino acids for eight weeks; type: in vivo; conditions: compared with HF feed, 2.0% single amino acid or 1.0%+1.0% in high-fat feed; for body weight of mice at autopsy: FIG. 1; for weight of fat tissue of mice at autopsy (accumulation of body fat): FIG. 2
Method: Forty C57BL/6J male mice (eight-weeks old, available from CLEA Japan, Inc.) were fed with CRF-1 powder (available from Oriental Yeast Co., Ltd.) during one-week acclimation period. The mice were then subjected to an experiment at the beginning of nine-weeks old. […] The weight of feed intake was individually measured, and the amount of energy intake was calculated from the energy value corresponding to 1 g of each experimental feed. After the eight-weeks' experiment by feeding with the respective experimental diets, the mice were subjected to autopsy to determine their body weight, and total fat weight including the peri-epididymal fat, peri-renal fat, mesenteric fat, and subcutaneous fat around the femurs.

[2] = test system: C57BL/6J male mice; experiment: Reference Example: mice fed high-fat feed with 3.0% L-threonine for eight weeks; type: in vivo
Method: Twenty C57BL/6J male mice (eight-weeks old, available from CLEA Japan, Inc.) were fed with CRF-1 powder (available from Oriental Yeast Co., Ltd.) during one-week acclimation period. The mice were then subjected to an experiment at the beginning of nine-weeks old.
The weight of feed intake by the individual mouse was measured, and the amount of energy intake (i.e., kilocalories) was calculated according to the feed from the energy value corresponding to 1 g of each experimental feed. After the eight-weeks' experiment by feeding with the respective experimental diets, the mice were subjected to autopsy to determine their body weight, and the weight of fat tissue sincluding the peri-epididymal fat, peri-renal fat, and mesenteric fat.

amount of energy intake during the feeding period ([2]; 3.0% L-threonine, FIG. 15) | Compound | body weight of mice at autopsy [1] | weight of fat tissue of mice at autopsy (accumulation of body fat) [1] | body weight of mice at autopsy ([2]; compared with HF feed, 3.0% L-threonine (group 3T), FIG. 13) | weight of fat tissue at autopsy ([2]; compared with HF feed, 3.0% L-threonine (group 3T), FIG. 14)
 | CC(C)C[C@H](N)C(=O)O [leucine, L-leucine] | not decreased | not decreased |  | 
not decreased | C[C@@H](O)[C@H](N)C(=O)O [threonine, L-threonine] | not decreased | not decreased | decreased | decreased
